Measured values from patent US20110224256A1, “T[…] THE TREATMENT OF PSYCHIATRIC DISORDERS” (priority 2008, published 2011).
“Also recorded” adds a separate entry of the source.

Assays:
D2 receptor = conditions: Naf doses below 1 mg/kg; cited from earlier work
Sprague-Dawley male rats [1] = experiment: Place conditioning to 10 mg/kg cocaine at P60 after juvenile drug exposure; format: in vivo; conditions: for place conditioning to cocaine-associated environment (pre- vs. post-conditioning): tested at P60, 10 mg/kg cocaine
Method: Juvenile Sprague-Dawley male rats were treated with MPH (2 mg/kg, i.p. twice daily), ±7-OHDPAT (0.3 mg/kg, i.p. twice daily), Naf (0.05, 0.5 and 5 mg/kg; i.p. twice daily) or VEH (i.p. twice daily) between the ages of P20 and P35 (Andersen et al., Nat. Neurosci., 5:13-14 (2002)). The MPH dose was selected on the basis of previous studies (see Andersen et al., Nat. Neurosci., 5:13-14 (2002); Bolanos et al., Biol. Psychiatry, 54:1317-1329 (2003); and Mague et al., Biol. Psychiatry, 57:120-125 (2005)), unpublished observations that we find similar behavioral effects if MPH is given i.p. or orally at this dose, and evidence that it approximates a clinically relevant dose in humans based on plasma levels (see Wargin et al., J. Pharmacol. Exp. Ther., 226:382-386 (1983); and Kuczenski, R. & Segal, D. S. J. Neurosci., 22:7264-7271 (2002)). Clinically therapeutic doses of MPH yield plasma levels between 8 and 40 ng/mL (Swanson et al., Behay. Brain Res., 130:73-78 (2002); Teicher et al., Ann. N. Y. Acad. Sci., 1071:313-323 (2006)), with 0.5 mg/kg i.p., achieving plasma levels of 36 ng/mL within 5 min in rats (Berridge et al., Biol. Psychiatry, 60:1111-1120 (2006)). Doses for juvenile exposure to ±7-OHDPAT are based on Neisewander et al., Neuropsychopharmacology, 29:1479-1487 (2004), and cortical microinjections of 10 µg/side were derived from Boulay et al. Prog. Neuropsychopharmacol. Biol. Psychiatry, 24:39-49 (2000). Naf doses below 1 mg/kg have negligible D2 receptor occupancy (Sautel et al., J. Pharmacol. Exp. Ther., 275:1239-1246 (1995)) and are behaviorally effective (Richtand et al., Brain Res., 867:239-242 (2000)). Subjects were weighed daily at 09.00 h and injected with their assigned drug; the second injection was administered 4 h later at 13.00 h. This regimen is designed to match the twice-daily dosing used by children, taking into account the higher metabolic rates of rats (Wargin et al., J. Pharmacol. Exp. Ther., 226:382-386 (1983)). After the second drug administration on P35, the rats received no further treatments until behavioral testing at P60.
Rats treated between P20 and P35 with either Naf (0, 0.05, 0.5 or 5.0 mg/kg; n=7-9), ±7-OHDPAT (0.3 mg/kg; n=9), MPH (2 mg/kg; n=9), or a combination of 2 mg/kg MPH and 0.05 mg/kg Naf (MPH/Naf; n=8) were tested at P60 for place conditioning to 10 mg/kg cocaine. According to standard laboratory methods (Andersen et al., Nat. Neurosci., 5:13-14 (2002); Carlezon, Methods Mol. Med., 84:243-249 (2003)), unbiased place conditioning chambers consisted of two large (24×18×33) side compartments separated by a small (12×18×33 cm) middle compartment. Screening was conducted for 30 min on Day 1. Rats were placed in the middle compartment and allowed to freely explore the apparatus. […] Two days of conditioning (with two sessions per day) occurred on Days 2 and 3 for 60 min (Andersen et al., Nat. Neurosci., 5:13-14 (2002); Carlezon, Methods Mol. Med., 84:243-249 (2003)). During the conditioning sessions, rats received a 1 mL/kg i.p. injection of VEH in the morning (09.00 h) and confined to one side. The rats were then returned to the home cage. Four hours later, rats received 10 mg/kg cocaine and confined to the other side. Sides differed in floor texture, wall colors and lighting, and assignments were counterbalanced. On Day 4, rats were permitted to freely explore the entire apparatus for 30 min in a drug-free state.

Sprague-Dawley male rats [2] = experiment: Locomotor activity at 60 days old after juvenile ±7-OHDPAT exposure; format: in vivo; conditions: juvenile ±7-OHDPAT 0.3 mg/kg P20-P35, vs VEH
Method: FIG. 6. Locomotor activity in response to a 10 mg/kg challenge with cocaine on the second day of cocaine conditioning in VEH- and ±7-OHDPAT-treated subjects (n=7-8 animals per group). *P<0.05 comparing the 10 mg/kg cocaine groups.
Juvenile Sprague-Dawley male rats were treated with MPH (2 mg/kg, i.p. twice daily), ±7-OHDPAT (0.3 mg/kg, i.p. twice daily), Naf (0.05, 0.5 and 5 mg/kg; i.p. twice daily) or VEH (i.p. twice daily) between the ages of P20 and P35 (Andersen et al., Nat. Neurosci., 5:13-14 (2002)). […]
To further investigate the functional role of the D3 receptor in juvenile psychostimulant treatment, animals were pre-pubertally treated with the D3-preferring agonist ±7-OHDPAT, the D3 antagonist Naf or a MPH/Naf combination. […] Next, juvenile manipulations of the D3 receptor on place conditioning were assessed and compared with each other. […]

Sprague-Dawley male rats [3] = experiment: Place conditioning to 10 mg/kg cocaine at P60 after juvenile drug exposure; format: in vivo; conditions: 10 µg/side into MPFCx during conditioning
[4] = tested on: mature and immature animals; conditions: cited from earlier work

Row | Compound | D2 receptor occupancy (D2 receptor) | place conditioning to cocaine-associated environment (pre- vs. post-conditioning) (Sprague-Dawley male rats [1]; juvenile Naf 0.05 mg/kg i.p. twice daily P20-P35) | place conditioning to cocaine-associated environment (pre- vs. post-conditioning) (Sprague-Dawley male rats [1]; juvenile Naf 0.5 mg/kg i.p. twice daily P20-P35) | place conditioning to cocaine-associated environment (pre- vs. post-conditioning) (Sprague-Dawley male rats [1]; juvenile Naf 5.0 mg/kg i.p. twice daily P20-P35) | baseline locomotor activity (Sprague-Dawley male rats [2]; 60 days old, P>0.9) | locomotor response to 10 mg/kg cocaine challenge (Sprague-Dawley male rats [2]; second day of cocaine conditioning, P<0.05) | place conditioning to cocaine after ±7-OHDPAT microinjection into the MPFCx (Sprague-Dawley male rats [3]; MPH-exposed subjects) | place conditioning to cocaine after ±7-OHDPAT microinjection into the MPFCx (Sprague-Dawley male rats [3]; MPH-exposed subjects, listed as ±7 OHDPAT) | place conditioning to cocaine after ±7-OHDPAT microinjection into the MPFCx (Sprague-Dawley male rats [3]; VEH-exposed subjects) | place conditioning to cocaine after ±7-OHDPAT microinjection into the MPFCx (Sprague-Dawley male rats [3]; VEH-exposed subjects, listed as ±7 OHDPAT) | locomotor activity [4] | place conditioning to 10 mg/kg cocaine associated environment (pre- vs. post-conditioning) (Sprague-Dawley male rats [1]; juvenile exposure P20-P35: MPH 2 mg/kg, ±7-OHDPAT 0.3 mg/kg, or MPH 2 mg/kg + Naf 0.05 mg/kg, tested at P60)
1 | CCCCN1CCCC1CNC(=O)c1cc(C#N)c2ccccc2c1OC (stereo not shown) [Naf, Nafadotride] | negligible | significant preference | significant preference | did not form such a preference | – | – | – | – | – | – | – | –
2 | CCCN(CCC)C1CCc2ccc(O)cc2C1 (racemic) [±7-OHDPAT, ±7-hydroxy-N,N-di-n-propyl-2-aminotetralin] | – | – | – | – | did not differ from VEH control animals | significantly reduced | reversing the aversion to cocaine; also recorded: produced a place preference to cocaine | significant preference for cocaine-associated environments | no greater effect | significant preference for cocaine-associated environments | inhibit locomotor activity | Place aversion; also recorded: aversion to the cocaine-associated environment
3 | CCCN1CCO[C@@H]2c3cc(O)ccc3OC[C@H]21 [PD 128907] | – | – | – | – | – | – | – | – | – | – | inhibit locomotor activity | –
